Source: ChEMBL document CHEMBL3832075, “DailyMed|setid=ff7c9b1c-4192-4d09-a2ab-b80ec14cd424 | PENTOXIL- pentoxifylline tablet, film coated, extended release|UPSHER-SMITH LABORATORIES, INC”

Key:
[1] = (§1) Pharmacokinetic parameters for Pentoxifylline evaluated after oral administration of Pentoxifylline tablet and in aqueous solution.; format: ADME, organism-based; settings: human, in vivo, dosed compound id 54, dosed compound name PENTOXIFYLLINE, tissue Plasma
Homo sapiens = assay: as §1; format: ADME, organism-based; settings: in vivo, po, dose 400 mg, dosed compound id 54, dosed compound name PENTOXIFYLLINE, tissue Plasma

CC(=O)CCCCn1c(=O)c2c(ncn2C)n(C)c1=O [PENTOXIFYLLINE]
half-life ([1]; dose 100 to 400 mg): 0.4 to 0.8 h
Tmax [1]: 1 h
Tmax (Homo sapiens): 2 to 4 h
